≈ marks a conversion by molar mass, not a printed value.
Legend:
[1] = Solubility of fenretinide in simulated saliva; format: physicochemical; conditions: pH 6.8
Procedure: The extent of solubility enhancement of fenretinide by numerous solubilizers (bile salts, surfactants, hydrophilic polymers, and co-solvents) was studied by determining the solubility in simulated saliva in the presence of 0.5, 1, 2, and 5% w/v solubilizers. Briefly, an excess amount of fenretinide was added into separate amber color ampoules containing 1-mL 0.5, 1, 2, and 5% w/v solutions of solubilizers (prepared using N2-purged simulated saliva) and sealed under vacuum in order remove the oxygen from the head-space. The ampoules were then placed in an incubator maintained at 37° C. and shaken at 240 RPM for 72 h (this duration was determined to be sufficient to reach the equilibrium). After 72 h, the ampoules were broken, mixture was passed through 0.45 μm PVDF filter units (Millipore, USA), diluted suitably with respective solubilizer solution, and the amount of fenretinide solubilized in simulated saliva was determined by HPLC.

[2] = cited from earlier work
[3] = Fenretinide solubility in bovine serum; format: physicochemical; conditions: for time required to achieve equilibrium with bovine serum: 37° C.
Procedure: Excessive amount of fenretinide was added into fetal bovine serum in polypropylene tubes. The sample was placed on a mechanical circulator and incubated at 37 C avoiding light. At every 24 hours (until fenretinide reached saturation in serum), the sample was centrifuged at 8000 rpm for 10 minutes. 0.2 ml sample was drawn from the supernatant. This volume was immediately replaced using blank serum. The tubes were shook to mix the supernatant and sediment, and then re-placed on the mechanical circulator and incubated at 37 C. The fenretinide concentration in the supernatant was measured by a HPLC assay after extraction using acetonitrile.
A known quantity (0.9, 2.26, 3.97, 8.03, and 20.5 mg) of fenretinide was added to polypropylene tubes containing 15 mL fetal bovine serum. The samples were incubated at 37° C. under constant rotation using a rigged rotator and protection from light. At every 24 h till 7 days, the samples were centrifuged at 8000 rpm for 10 minutes and 200 μl of supernatant was withdrawn. Withdrawn serum sample was replaced with fresh serum sample, mixed properly, and incubated again under similar conditions. To the withdrawn sample (200 μl), 2 mL of acetonitrile was added, agitated overnight on a mechanical shaker with protection from light, passed through 0.45 μm PVDF filter units, and analyzed by HPLC.

[4] = Water solubility of fenretinide; format: physicochemical
[5] = system: cellular terminal differentiation and apoptosis; conditions: cited from earlier work

## CC1=C(/C=C/C(C)=C/C=C/C(C)=C/C(=O)Nc2ccc(O)cc2)C(C)(C)CCC1 [Fenretinide, 4-hydroxy(phenyl)retinamide]
[1]
  solubility in simulated saliva: insoluble
[2]
  intrinsic aqueous solubility: 0.0098 µg/mL
[3]; 0.9 mg fenretinide in 15 mL serum
  time required to achieve equilibrium with bovine serum: 7 days
[3]; 8.03 mg fenretinide in 15 mL serum
  time required to achieve equilibrium with bovine serum: 4 days
[3]; fetal bovine serum, 37° C. (Example 3, FIG. 10A)
  solubility of fenretinide in bovine serum: 21 µg/mL
[3]; plasma or biological fluid, thermodynamic from solid, fetal bovine serum, 37 C, after 6 days incubation (Example 2)
  solubility at 6 days: 20.9 ± 1.02 µg/mL (≈ 53.5 µM)
[3]; plasma or biological fluid, thermodynamic from solid, fetal bovine serum, 37° C. (Example 3, FIG. 10A)
  solubility: 21 ± 1 µg/mL (≈ 53.6 µM)
[4]
  water solubility: below HPLC detection limit
[5]
  in vitro concentration inducing apoptosis: > 5 µM
  in vitro concentration inducing cellular terminal differentiation: < 3 µM
